Results on four compounds are retold here after PubChem BioAssay (NCI).

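Cultured in 96-well plates, cells were exposed to test compound for 48 hours across five concentrations. TGI: concentration producing complete growth inhibition.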

For the first assay, the system named is EKVX NSCLC. The assay is described as follows: NCI-60 cell line screen, 48 h.
`O=c1[nH]c(Nc2cccc(CC(F)(F)F)c2)nc2nc[nH]c12`: the TGI was above 100 µM.

A further assay has as its system SR leukemia. The assay is described as follows: NCI-60 cell line screen, 48 h.
In turn, `CCCCCCCCCCCCCCNC(=O)CCC(NC(=O)c1ccc(N(C)Cc2cnc3nc(N)nc(N)c3n2)cc1)C(=O)NCCCCCCCCCCCCCC` (stereo unspecified) returned a TGI of 21.8 µM.
Still for that read-out and setting: with `C[C@@H](NC(=O)[C@@H]1C[C@]1(C)COC(=O)c1cc([N+](=O)[O-])cc([N+](=O)[O-])c1)c1cccc2ccccc12` the figure was above 100 µM.
The same measure, in the same setting: the figure for `COC(=O)c1cc(=O)nc2sc3cccc(C)c3n12` is above 100 µM; for `O=c1[nH]c(Nc2cccc(CC(F)(F)F)c2)nc2nc[nH]c12` it is above 100 µM.

In another assay the test system is TK-10 renal. The assay is described as follows: NCI-60 cell line screen, 48 h.
In the case of `CCCCCCCCCCCCCCNC(=O)CCC(NC(=O)c1ccc(N(C)Cc2cnc3nc(N)nc(N)c3n2)cc1)C(=O)NCCCCCCCCCCCCCC` (stereo unspecified), the TGI was above 86.2 µM.
Same read-out and setting: with `C[C@@H](NC(=O)[C@@H]1C[C@]1(C)COC(=O)c1cc([N+](=O)[O-])cc([N+](=O)[O-])c1)c1cccc2ccccc12` the figure was above 100 µM.
The same measure, in the same setting: with `COC(=O)c1cc(=O)nc2sc3cccc(C)c3n12` the figure was above 100 µM; with `O=c1[nH]c(Nc2cccc(CC(F)(F)F)c2)nc2nc[nH]c12`, above 100 µM.

In another assay the test system is U251 CNS. The assay is described as follows: NCI-60 cell line screen, 48 h.
Compound `CCCCCCCCCCCCCCNC(=O)CCC(NC(=O)c1ccc(N(C)Cc2cnc3nc(N)nc(N)c3n2)cc1)C(=O)NCCCCCCCCCCCCCC` (stereo unspecified) gave a TGI of 32.6 µM.
Same read-out and setting: with `C[C@@H](NC(=O)[C@@H]1C[C@]1(C)COC(=O)c1cc([N+](=O)[O-])cc([N+](=O)[O-])c1)c1cccc2ccccc12` the figure was above 100 µM; with `COC(=O)c1cc(=O)nc2sc3cccc(C)c3n12`, above 100 µM.
Still for that read-out and setting: with `O=c1[nH]c(Nc2cccc(CC(F)(F)F)c2)nc2nc[nH]c12` the figure was above 100 µM.

The subject of another assay is HOP-92 NSCLC. The assay is described as follows: NCI-60 cell line screen, 48 h.
Turning to `CCCCCCCCCCCCCCNC(=O)CCC(NC(=O)c1ccc(N(C)Cc2cnc3nc(N)nc(N)c3n2)cc1)C(=O)NCCCCCCCCCCCCCC` (stereo unspecified), the TGI came out at 63.8 µM.
The same measure, in the same setting: with `C[C@@H](NC(=O)[C@@H]1C[C@]1(C)COC(=O)c1cc([N+](=O)[O-])cc([N+](=O)[O-])c1)c1cccc2ccccc12` the figure was above 100 µM; with `COC(=O)c1cc(=O)nc2sc3cccc(C)c3n12`, 69.1 µM.
Same read-out and setting: with `O=c1[nH]c(Nc2cccc(CC(F)(F)F)c2)nc2nc[nH]c12` the figure was above 100 µM.

The test system of a further assay is SK-MEL-2 melanoma. The assay is described as follows: NCI-60 cell line screen, 48 h.
In turn, `CCCCCCCCCCCCCCNC(=O)CCC(NC(=O)c1ccc(N(C)Cc2cnc3nc(N)nc(N)c3n2)cc1)C(=O)NCCCCCCCCCCCCCC` (stereo unspecified) came in with a TGI above 61.9 µM.
Still for that read-out and setting: with `C[C@@H](NC(=O)[C@@H]1C[C@]1(C)COC(=O)c1cc([N+](=O)[O-])cc([N+](=O)[O-])c1)c1cccc2ccccc12` the figure was above 100 µM.
On the same count and under the same terms, with `COC(=O)c1cc(=O)nc2sc3cccc(C)c3n12` the figure was 82.5 µM; with `O=c1[nH]c(Nc2cccc(CC(F)(F)F)c2)nc2nc[nH]c12`, above 100 µM.

The test system of the next assay is MDA-N. The assay is described as follows: NCI-60 cell line screen, 48 h.
In the case of `CCCCCCCCCCCCCCNC(=O)CCC(NC(=O)c1ccc(N(C)Cc2cnc3nc(N)nc(N)c3n2)cc1)C(=O)NCCCCCCCCCCCCCC` (stereo unspecified), the TGI was 21.9 µM.
Compound `C[C@@H](NC(=O)[C@@H]1C[C@]1(C)COC(=O)c1cc([N+](=O)[O-])cc([N+](=O)[O-])c1)c1cccc2ccccc12` returned a TGI above 100 µM.
On the same count and under the same terms, the figure for `COC(=O)c1cc(=O)nc2sc3cccc(C)c3n12` is above 100 µM; for `O=c1[nH]c(Nc2cccc(CC(F)(F)F)c2)nc2nc[nH]c12` it is above 100 µM.

In a further assay the test system is IGROV1 ovarian. The assay is described as follows: NCI-60 cell line screen, 48 h.
As for `CCCCCCCCCCCCCCNC(=O)CCC(NC(=O)c1ccc(N(C)Cc2cnc3nc(N)nc(N)c3n2)cc1)C(=O)NCCCCCCCCCCCCCC` (stereo unspecified), the TGI came to 27.3 µM.
Same read-out and setting: the figure for `C[C@@H](NC(=O)[C@@H]1C[C@]1(C)COC(=O)c1cc([N+](=O)[O-])cc([N+](=O)[O-])c1)c1cccc2ccccc12` is above 100 µM; for `COC(=O)c1cc(=O)nc2sc3cccc(C)c3n12` it is above 100 µM.
Still for that read-out and setting: with `O=c1[nH]c(Nc2cccc(CC(F)(F)F)c2)nc2nc[nH]c12` the figure was above 100 µM.

The next assay has as its system K-562 leukemia. The assay is described as follows: NCI-60 cell line screen, 48 h.
In the case of `CCCCCCCCCCCCCCNC(=O)CCC(NC(=O)c1ccc(N(C)Cc2cnc3nc(N)nc(N)c3n2)cc1)C(=O)NCCCCCCCCCCCCCC` (stereo unspecified), the TGI was above 100 µM.
Still for that read-out and setting: with `C[C@@H](NC(=O)[C@@H]1C[C@]1(C)COC(=O)c1cc([N+](=O)[O-])cc([N+](=O)[O-])c1)c1cccc2ccccc12` the figure was above 100 µM; with `COC(=O)c1cc(=O)nc2sc3cccc(C)c3n12`, above 100 µM.

The next assay concerns HCC-2998 colon. The assay is described as follows: NCI-60 cell line screen, 48 h.
In turn, `CCCCCCCCCCCCCCNC(=O)CCC(NC(=O)c1ccc(N(C)Cc2cnc3nc(N)nc(N)c3n2)cc1)C(=O)NCCCCCCCCCCCCCC` (stereo unspecified) came in with a TGI of 19.8 µM.
On the same count and under the same terms, the figure for `C[C@@H](NC(=O)[C@@H]1C[C@]1(C)COC(=O)c1cc([N+](=O)[O-])cc([N+](=O)[O-])c1)c1cccc2ccccc12` is above 100 µM; for `O=c1[nH]c(Nc2cccc(CC(F)(F)F)c2)nc2nc[nH]c12` it is above 100 µM.

In the next assay the test system is SK-MEL-5 melanoma. The assay is described as follows: NCI-60 cell line screen, 48 h.
As for `CCCCCCCCCCCCCCNC(=O)CCC(NC(=O)c1ccc(N(C)Cc2cnc3nc(N)nc(N)c3n2)cc1)C(=O)NCCCCCCCCCCCCCC` (stereo unspecified), the TGI is above 81.7 µM.
Compound `C[C@@H](NC(=O)[C@@H]1C[C@]1(C)COC(=O)c1cc([N+](=O)[O-])cc([N+](=O)[O-])c1)c1cccc2ccccc12` had a TGI above 100 µM.
Still for that read-out and setting: with `COC(=O)c1cc(=O)nc2sc3cccc(C)c3n12` the figure was above 100 µM.
`O=c1[nH]c(Nc2cccc(CC(F)(F)F)c2)nc2nc[nH]c12` yielded a TGI above 100 µM.

The subject of a further assay is MDA-MB-231 breast. The assay is described as follows: NCI-60 cell line screen, 48 h.
`CCCCCCCCCCCCCCNC(=O)CCC(NC(=O)c1ccc(N(C)Cc2cnc3nc(N)nc(N)c3n2)cc1)C(=O)NCCCCCCCCCCCCCC` (stereo unspecified) registered a TGI above 44.8 µM.
On the same count and under the same terms, with `C[C@@H](NC(=O)[C@@H]1C[C@]1(C)COC(=O)c1cc([N+](=O)[O-])cc([N+](=O)[O-])c1)c1cccc2ccccc12` the figure was above 100 µM.
The same measure, in the same setting: with `COC(=O)c1cc(=O)nc2sc3cccc(C)c3n12` the figure was above 100 µM.
On the same count and under the same terms, the figure for `O=c1[nH]c(Nc2cccc(CC(F)(F)F)c2)nc2nc[nH]c12` is above 100 µM.

The next assay relates to UACC-257 melanoma. The assay is described as follows: NCI-60 cell line screen, 48 h.
The compound `CCCCCCCCCCCCCCNC(=O)CCC(NC(=O)c1ccc(N(C)Cc2cnc3nc(N)nc(N)c3n2)cc1)C(=O)NCCCCCCCCCCCCCC` (stereo unspecified) gave a TGI of 35.4 µM.
Same read-out and setting: with `C[C@@H](NC(=O)[C@@H]1C[C@]1(C)COC(=O)c1cc([N+](=O)[O-])cc([N+](=O)[O-])c1)c1cccc2ccccc12` the figure was above 100 µM.
Compound `COC(=O)c1cc(=O)nc2sc3cccc(C)c3n12` showed a TGI above 100 µM.
`O=c1[nH]c(Nc2cccc(CC(F)(F)F)c2)nc2nc[nH]c12` had a TGI above 100 µM.

The subject of another assay is NCI-H226 lung. The assay is described as follows: NCI-60 cell line screen, 48 h.
Consider `CCCCCCCCCCCCCCNC(=O)CCC(NC(=O)c1ccc(N(C)Cc2cnc3nc(N)nc(N)c3n2)cc1)C(=O)NCCCCCCCCCCCCCC` (stereo unspecified), for which the TGI is above 100 µM.
Still for that read-out and setting: the figure for `C[C@@H](NC(=O)[C@@H]1C[C@]1(C)COC(=O)c1cc([N+](=O)[O-])cc([N+](=O)[O-])c1)c1cccc2ccccc12` is above 100 µM.
On the same count and under the same terms, the figure for `COC(=O)c1cc(=O)nc2sc3cccc(C)c3n12` is above 100 µM; for `O=c1[nH]c(Nc2cccc(CC(F)(F)F)c2)nc2nc[nH]c12` it is above 100 µM.

A further assay deals with A549 NSCLC. The assay is described as follows: NCI-60 cell line screen, 48 h.
`CCCCCCCCCCCCCCNC(=O)CCC(NC(=O)c1ccc(N(C)Cc2cnc3nc(N)nc(N)c3n2)cc1)C(=O)NCCCCCCCCCCCCCC` (stereo unspecified) returned a TGI above 36.3 µM.
Still for that read-out and setting: the figure for `C[C@@H](NC(=O)[C@@H]1C[C@]1(C)COC(=O)c1cc([N+](=O)[O-])cc([N+](=O)[O-])c1)c1cccc2ccccc12` is above 100 µM; for `COC(=O)c1cc(=O)nc2sc3cccc(C)c3n12` it is above 100 µM.
On the same count and under the same terms, with `O=c1[nH]c(Nc2cccc(CC(F)(F)F)c2)nc2nc[nH]c12` the figure was above 100 µM.

The next assay concerns CCRF-CEM leukemia. The assay is described as follows: NCI-60 cell line screen, 48 h.
With `CCCCCCCCCCCCCCNC(=O)CCC(NC(=O)c1ccc(N(C)Cc2cnc3nc(N)nc(N)c3n2)cc1)C(=O)NCCCCCCCCCCCCCC` (stereo unspecified), the TGI is above 31.6 µM.
